According to patent publication US9254266B2, “Inhibiting surface enhanced crystallization of amorphous pharmaceuticals with ultrathin coatings” (Wisconsin Alumni Research Foundation, priority 2007, dated 2016):
≈ marks a conversion by molar mass, not a printed value.

How the values were obtained:
Assay type in all cases: physicochemical
[1] = Flowability measurements and tablet properties of IMC powder
Method: Flowability measurements. […] To determine tapped density and compressibility, approximately 1.5 g of powder was poured into a 10-ml cylinder. The initial volume (V0) yielded the initial bulk density D0 (“fluff or poured bulk density”). The powder was then tapped for 5 minutes to obtain the final bulk volume (Vf) and the final bulk density Df (“equilibrium, tapped or consolidated bulk density”). The percent (%) compressibility (Carr's Index) was calculated from (Df−D0)/Df×100, which is another measure of powder flowability (% compressibility higher than 40% is thought to indicate a non-flowing, cohesive powder; % compressibility lower than 28% is thought to indicate a fluid to free-flowing powder).
Uncoated amorphous IMC powder was cohesive and flowed with difficulty, while the coated powder flowed more easily. For the uncoated powder, the angle of repose was 36°, signifying acceptable flowability.

[2] = Water contact angle on amorphous IMC film; conditions: 22° C., 70% R.H.
Method: Contact Angle Measurements. The measurements were performed at 22° C. and 70% R.H. using a method similar to that of Zografi and Tam. […] The water droplet thus formed was about 3 mm in diameter. A side view of the droplet was recorded with a digital camera and the contact angle was measured from the image (Image J1.34 S). Each amorphous film was measured three times at different sites. Three samples were measured for each coating condition.
The water contact angle characterizes the wetting ability of the surface. The measurement was performed with amorphous IMC films on microscope cover glasses. […] The contact angle increased and decreased accordingly with additional layers of PDDA and PSS.

[3] = Zeta potential of IMC particles; conditions: particles suspended in 0.01 M NaCl
Method: Zeta potentials were measured with a ZetaSizer 3000HSA (Malvern Instruments, USA). Sample particles (ca. 5 mg) were dispersed in 0.01 M NaCl. […] Each reported result was the average of three measurements.
Before coating amorphous IMC by this method, the sign of its surface charge in a coating solution was determined. […] (The pH of the coating solutions was 6.1 (PDDA) and 6.4 (PSS)). […] Coating with one layer of PDDA reversed the surface charge to positive (ζ-potential=+37 mV); adding the next layer (PSS) reversed the surface charge to negative again (ζ-potential=−32 mV); and so on.

[4] = Intrinsic dissolution rate (IDR), USP Dissolution Apparatus II; conditions: 0.1 M phosphate buffer pH 7.2, 37° C.; for IDR: 50 RPM, first 15 minutes, no storage
Method: Measurement of intrinsic dissolution rate (IDR). The IDR was measured using a USP Dissolution Apparatus II (rotating paddle, model RC-8D, Vanguard, Spring, Tex.) following standard procedures. […] Tablets without visible chipping or surface imperfection were used for dissolution measurement. Each tablet used for IDR measurement was coated on one side and around the rim with water-impervious shellac (clear nail polish) that contained as the primary ingredient tosylamide epoxy resin. Conditions of the IDR measurement were as follows: 500 ml of 0.1 M phosphate buffer (pH 7.2), 50 RPM of paddle speed, 1 inch between the tablet and the paddle, and 37° C. Samples were taken every 2.5 minutes up to 15 minutes, every 5 minutes up to 30 minutes, and every 10 minutes up to 60 minutes. Each sample (2 ml) of the solution was drawn with a syringe and filtered through a 0.22-μm filter needle. The sample's concentration was determined by UV-visible spectrometry at 318 nm. The analyzed solution was returned to the dissolution vessel to maintain the constant volume. For each amorphous IMC material studied (with and without coating, with and without aging), the IDR measurement was performed six times with three independently prepared materials as described above.
As shown above in FIG. 4, because one layer of PDDA was nearly as effective as several layers of PDDA and PSS in inhibiting surface crystallization, this example used materials coated with a single layer of PDDA. Moreover, thinner coatings are expected to maximize the rate of dissolution. […] For comparison, the IDR of γ IMC was also measured. Each data point in FIG. 8 is the average of six measurements. For each sample of amorphous IMC (uncoated or coated), the six measurements were performed with three independently prepared materials (including melting, grinding, coating, and tableting). […] Similarly, it is assumed that the IDR of amorphous IMC was measured under a sink condition.

[5] = Surface crystallization and crystal growth of amorphous IMC films (light microscopy)
Method: Deposition of gold coatings. A Denton Vacuum Desk II (Denton Vacuum, Moorestown, N.J.) was used to deposit a gold coating on amorphous IMC. […] Under these conditions, the deposition rate was ca. 10 nm/30 s, providing a gold coating of about 10 nm in thickness. […] The coated film was golden and reflective. Deposition of LbL polyelectrolyte coatings on amorphous films. […] (Tg−20° C.), and gently removing one cover glass. To coat several films at once, they were loaded into a Teflon rack and immersed into the PDDA solution for 15 minutes. The samples were washed twice in Milli-Q water to remove the excess PDDA and immersed in the PSS solution. This procedure was repeated until the desired number of polymer layers was reached. The coated samples were left on a Whatman filter paper to remove the excess liquid on the slide and dried in a vacuum (0.4 mTorr) at 22° C. for 3 hrs. X-ray powder diffraction (XRPD). XRPD was performed with a Bruker D8 Advance X-ray diffractometer, which was equipped with a CuKα source (λ=1.54056 Å) operating at a tube load of 40 kV and 40 mA. The divergence slit size was 1 mm, the receiving slit, 1 mm, and the detector slit, 0.1 mm. Data was collected by a high-resolution Sol-X detector. Each sample was scanned between 2 and 40° (2θ) with a step size of 0.02° and a maximum scan rate of 3 s/step. The NIST standard SRM 1976 was used to check the instrument's calibration and performance. Samples of small quantities were analyzed on a Si(510) zero-background holder. Polarized light microscopy (PLM) was performed with a Nikon Optiphot Pol 2 microscope equipped with an Olympus video camera. The video image was calibrated against a 1-mm stage micrometer (100 divisions). Differential scanning calorimetry (DSC) was conducted in crimped Al pans using a TA Instruments Q1000 unit under 50 mL/min N2 purge. […] (Tg−2° C.). […] The crystals were birefringent. […] All samples were tested at 40° C. in a desiccator. […] Moreover, coating a partially crystallized sample with gold inhibited further crystallization. […] The set of experiments was again performed with amorphous IMC films prepared on microscope cover glasses. […] By contrast, only a small percentage of a coated surface was covered by crystals (white spots in the pictures) under the same conditions (FIG. 4b). Moreover, the crystals that did form on the coated surface grew much more slowly than those on the uncoated surface.

[6] = Crystallization of amorphous IMC powder on storage (XRPD, DSC)
Method: The particles were sieved through to a 75 μm screen, transferred to a 200 ml beaker containing 100 ml of the PDDA solution, and kept in contact with the solution for 15 minutes. The suspension was filtered through #2 Whatman filter paper to remove the supernatant and washed with Milli-Q water. Vacuum was then applied to dry the particles for at least 3 hrs.
X-ray powder diffraction (XRPD). XRPD was performed with a Bruker D8 Advance X-ray diffractometer, which was equipped with a CuKα source (λ=1.54056 Å) operating at a tube load of 40 kV and 40 mA. The divergence slit size was 1 mm, the receiving slit, 1 mm, and the detector slit, 0.1 mm. Data was collected by a high-resolution Sol-X detector. Each sample was scanned between 2 and 40° (2θ) with a step size of 0.02° and a maximum scan rate of 3 s/step. The NIST standard SRM 1976 was used to check the instrument's calibration and performance. Samples of small quantities were analyzed on a Si(510) zero-background holder. Polarized light microscopy (PLM) was performed with a Nikon Optiphot Pol 2 microscope equipped with an Olympus video camera. The video image was calibrated against a 1-mm stage micrometer (100 divisions). Differential scanning calorimetry (DSC) was conducted in crimped Al pans using a TA Instruments Q1000 unit under 50 mL/min N2 purge.
The larger the exotherm, the greater the amorphous fraction before DSC analysis. […]

[7] = Solubility of γ IMC in buffer; conditions: aqueous buffer, thermodynamic from solid; 0.1 M PBS buffer pH 7.2, 37° C.

Compound	% Compressibility ([1]; Carr's Index, (Df−D0)/Df×100)	angle of repose ([1]; powder)	angle of repose ([1]; powder sieved through 75 μm screen)	Tapped Density ([1]; powder tapped for 5 minutes)	Tablet Bulk Density ([1]; tablets made with a Carver press)	Tablet Porosity ([1]; true density of 1.31 g/cm^3 used)	water contact angle [2]	ζ-potential [3]	time until tablet began crystallizing to α IMC in the dissolution medium [4]	IDR ([4]; listed as Uncoated)	IDR after 2 d ([4]; after 2 days of storage at 40° C.)	surface crystallization in vacuum compared with desiccated ambient air ([5]; 0.4 mTorr and 22° C.)	surface covered by crystals after 20 days ([5]; 15 μm films on cover glasses, 20 days at 40° C.)	crystallization of film between two cover glasses ([5]; below Tg (42° C.), no free surface)	appearance of crystals at free surface ([5]; one cover glass removed, 40° C.)	coverage of free surface with crystals on storage ([5]; uncoated film, 40° C.)	solid state of powder after 2 days (PXRD) ([6]; 2 days at 40° C., powder sieved through 75 μm)	DSC crystallization exotherm after 2 days ([6]; 2 days of storage at 40° C.)	IDR [4]	solubility [7]
COc1ccc2c(c1)c(CC(=O)O)c(C)n2C(=O)c1ccc(Cl)cc1 [amorphous IMC, 1-(p-chlorobenzoyl)-5-methoxy-2-methylindole-3-acetic acid]	42 ± 1%	36 °	36.1 ± 2.3	0.52 ± 0.03 g/mL	1.07 ± 0.03 g/mL	18 ± 2%	44 °	−41 mV	approximately 20 minutes	0.56 mg/cm^2/min	0.10 mg/cm^2/min	same rate of crystal growth	completely covered with crystals	does not crystallize for months	crystals appear in days	After two or three weeks, the surface was fully covered with crystals	crystallized into γ IMC	disappears		
COc1ccc2c(c1)c(CC(=O)O)c(C)n2C(=O)c1ccc(Cl)cc1 [γ IMC, 1-(p-chlorobenzoyl)-5-methoxy-2-methylindole-3-acetic acid]								negatively charged											0.07 mg/cm^2/min	1500 µg/mL (≈ 4.19 mM)
